How the values were obtained:
[1] = tested on: U251 Glioblastoma cell line; assay: Cytotoxicity assay (MTT, 72 hours, daily administration) in U251; assay type: cell-based; conditions: Homo sapiens, U-251, read-out: % VIABILITY ± S.D.
Text: (§1) The combinations were effective in other human tumor cell lines and we tested in glioblastoma cell line and endometrial cancer cell Additional tests include data obtained from two independent experiments, six wells for dose.

[2] = tested on: PCEM004a endometrial cancer cell line; assay: Cytotoxicity assay (MTT, 72 hours, daily administration) in PCEM004a; assay type: cell-based; conditions: Homo sapiens, read-out: % VIABILITY ± S.D.
Text: as §1

[3] = tested on: pancreatic adenocarcinoma associated genes; assay: TaqMan Array gene expression in MIAPaCa-2, normalized for GAPDH; assay type: cell-based, Human; conditions: Mia-PACA-2, 24 hs, CBD 3.8, MLT 200, AKBA 7.5 micrograms/ml
Method: Total RNA from untreated or CBD, MLT, AKBA alone and in combination treated cell lines was extracted using Rneasy Mini kit (Qiagen, Milan, Italy). One microgram of total RNA from each sample was subjected to reverse transcription in a total volume of 20 μL using the High-Capacity cDNA Archive Kit (Applied Biosystem, Foster City, […], USA) according to the instructions. cDNAs were analyzed by qRT-PCR performed using an IQ5 Multicolor Real time PCR Detection system. Quantitative real-time gene expression was performed with the TaqMan® Array Human Pancreatic Adenocarcinoma 96-well Plate, containing 92 assays to pancreatic adenocarcinoma associated genes and 4 assays to candidate endogenous control genes, was purchased (Thermo Fisher, Grand Island, NY, USA) and used to evaluate the treatments in modulating PDAC-related genes (Table 1). Measurement of different housekeeping genes (GAPDH; HPRT1; GUSB) on the samples was used to normalize mRNA content. The gene expression levels of treated cell lines were expressed as relative fold compared with untreated or vehicle-treated cells.
To elucidate the molecular events induced by CBD, MLT and AKBA alone and in combination, 92 genes involved in PDAC progression and aggressiveness were evaluated by Taqman Array. Both cell lines were treated with CBD, MLT and AKBA alone and in combination, and the molecular pathways of PDAC associated gene were evaluated.
Target mRNA levels were normalized for GAPDH expression.

[4] = tested on: MIAPaCa-2 cell line; assay: Cytotoxicity assay (MTT, 72 hours, daily administration) in MIAPaCa-2; conditions: Homo sapiens, MIA PaCa-2, read-out: % VIABILITY ± S.D.
Method: Human pancreatic ductal adenocarcinoma (PANC-1 and MIAPaCa-2) cell lines were purchased by Sigma Aldrich (Milan, Italy) and cultured in DMEM high glucose medium (EuroClone, Milan, Italy) supplemented with 10% of fetal bovine serum (FBS), 2 mM L-glutamine, 100 IU/mL penicillin, 100 mg streptomycin and 1 mM sodium pyruvate. Cell lines were maintained at 37° C. with 5% CO2 and 95% of humidity.
3×10^4 cells/mL were seeded in 96-well plates in a final volume of 100 L/well. After one day of incubation, compounds or vehicles, alone or in combination, were added and six replicates were used for each treatment and all experiments were repeated three times. In all the experiments, the treatment was daily added, after washing with fresh medium. After 72 hours cell viability was investigated by adding 0.8 mg/mL of 3-[4,5-dimethylthiazol-2-yl]-2,5 diphenyl tetrazolium bromide (MTT) (Sigma Aldrich) to the media. After 3 h the supernatant was removed, and the pellet of salt crystals was solubilized with 100 μL/well of DMSO. The absorbance of the sample against a background control was measured at 570 nm using an ELISA reader microliter plate (BioTek Instruments, Winooski, VT, USA).
Cytotoxicity in PDAC cell lines: The effect of CBD, MLT and AKBA in reducing cell viability was evaluated at 72 hours, post daily administration, in PDAC cell lines. Cells were treated with different doses of CBD, MLT and AKBA (up to 1 mg) and percentage of cell viability was evaluated by the MTT assay. […] The compounds were administered daily for 72 hours, as in previous experiments at the desired doses. […] MTT assay was used to analyse the cell cytotoxicity.

[5] = normalized for GAPDH, Akt pathways
[6] = normalized for GAPDH, Akt-pathways
[7] = normalized for GAPDH, DNA repair
[8] = normalized for GAPDH, NfkB pathways
[9] = normalized for GAPDH, Ras pathways
[10] = normalized for GAPDH, TGF patways
[11] = normalized for GAPDH, TGF-patways
[12] = normalized for GAPDH, angiogenesis
[13] = normalized for GAPDH, apoptosis
[14] = normalized for GAPDH, cell cycle
[15] = normalized for GAPDH, inflammation
[16] = normalized for GAPDH, proliferation

## C=C(C)[C@@H]1CCC(C)=C[C@H]1c1c(O)cc(CCCCC)cc1O [CBD, 2-[(1R,6R)-3-methyl-6-prop-1-en-2-ylcyclohex-2-en-1-yl]-5-pentylbenzene-1,3-diol]
[1]; CBD 1.9 micrograms/ml
  viability at 1.9 µg/mL: 100 ± 7.1%
[1]; CBD 3.8 micrograms/ml
  viability at 3.8 µg/mL: 100 ± 5.5%
[1]; CBD 7.6 micrograms/ml
  viability at 7.6 µg/mL: 97 ± 10.1%
[1]; CBD 15.2 micrograms/ml
  viability at 15.2 µg/mL: 65.2 ± 4.3%
[2]; CBD 1.9 micrograms/ml
  viability at 1.9 µg/mL: 74.8 ± 7.2%
[2]; CBD 3.8 micrograms/ml
  viability at 3.8 µg/mL: 93.2 ± 4.2%
[2]; CBD 7.6 micrograms/ml
  viability at 7.6 µg/mL: 93.4 ± 5.4%
[2]; CBD 15.2 micrograms/ml
  viability at 15.2 µg/mL: 50.4 ± 3.4%
[3]; GAPDH is the normalizer
  GAPDH relative expression: 1.00
[3]; [5]
  PK3CB relative expression: 0.10
  PK3CD relative expression: 0.08
[3]; [6]
  AKT1 relative expression: 0.10
  AKT2 relative expression: 0.54
  AKT3 relative expression: 0.00
  IGF1 relative expression: 0.00
  PK3CA relative expression: 0.03
  PK3R1 relative expression: 0.04
[3]; [7]
  BRCA2 relative expression: 0.16
  MDM2 relative expression: 0.04
  TP53 relative expression: 0.22
[3]; normalized for GAPDH, Heat sock protein
  HSP90AA1 relative expression: 0.42
[3]; [8]
  NFKB1 relative expression: 0.04
  NFKB2 relative expression: 0.15
  REL relative expression: 0.11
  RELA relative expression: 0.06
  RELB relative expression: 0.26
  RHOA relative expression: 0.34
  RHOB relative expression: 0.04
[3]; [9]
  BRAF relative expression: 0.22
  E2F1 relative expression: 0.15
  E2F3 relative expression: 0.08
  E2F4 relative expression: 0.19
  EGF relative expression: 0.00
  EGFR relative expression: 0.21
  ELK1 relative expression: 0.09
  ERBB2 relative expression: 0.02
  GRB2 relative expression: 0.13
  HBEGF relative expression: 0.13
  KRAS relative expression: 0.09
  MAP2K1 relative expression: 0.00
  MAP2K2 relative expression: 0.08
  MAPK1 relative expression: 0.07
  MAPK3 relative expression: 0.01
  RAF1 relative expression: 0.01
  RB1 relative expression: 0.06
  SOS1 relative expression: 0.06
[3]; [10]
  TGFB2 relative expression: 0.08
  TGFB3 relative expression: 0.00
  TGFBR1 relative expression: 0.02
[3]; [11]
  SMAD2 relative expression: 0.06
  SMAD3 relative expression: 0.18
  SMAD4 relative expression: 0.07
  TGFA relative expression: 0.64
  TGFB1 relative expression: 0.06
  TGFBR2 relative expression: 0.00
[3]; [12]
  FIGF relative expression: 0.11
  VEGFA relative expression: 0.02
  VEGFB relative expression: 0.06
  VEGFC relative expression: 0.03
[3]; [13]
  BCL2L1 relative expression: 0.26
  BCL2 relative expression: 0.00
  BIRC5 relative expression: 0.11
[3]; [14]
  CCNA2 relative expression: 0.01
  CCNB1 relative expression: 0.37
  CCND1 relative expression: 0.11
  CCND2 relative expression: 0.00
  CCNE1 relative expression: 0.10
  CCNE2 relative expression: 0.12
  CDC42 relative expression: 0.05
  CDK2 relative expression: 0.15
  CDK4 relative expression: 0.25
  CDKN1A relative expression: 0.04
  CDKN1B relative expression: 0.11
  CDKN2A relative expression: 0.26
  CDKN2B relative expression: 0.42
  CDKN2C relative expression: 0.03
  CDKN2D relative expression: 0.04
[3]; [15]
  IL6 relative expression: 0.00
  JAK1 relative expression: 0.27
  JAK2 relative expression: 0.01
  JAK3 relative expression: 0.01
  STAT1 relative expression: 0.11
  STAT2 relative expression: 0.04
  STAT3 relative expression: 0.06
  STAT6 relative expression: 0.79
  STATSB relative expression: 0.03
[3]; normalized for GAPDH, invasion
  MMP1 relative expression: 0.00
  MMP2 relative expression: 0.07
  MMP3 relative expression: 0.00
  MMP7 relative expression: 0.01
  MMP9 relative expression: 0.01
  PTGS2 relative expression: 0.00
  RAC1 relative expression: 0.11
  RAC2 relative expression: 0.01
[3]; [16]
  KIT relative expression: 0.00
  NOTCH1 relative expression: 0.02
  SRC relative expression: 0.03
[4]
  viability at 1.9 µg/mL: 74.8 ± 7.2%
  viability at 3.8 µg/mL: 29.5 ± 1.9%
  viability at 7.6 µg/mL: 9.2 ± 0.4%
  viability at 15.2 µg/mL: 5.2 ± 0.4%
